Data as given in ChEMBL document CHEMBL1201862, “PubChem BioAssay data set” (2004).
Several values for one entry are separate records, joined by “and”; a condition that tells them apart may be missing. Equal entries are not always repeated.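 Where inhibition never reached the appropriate level, the endpoint shown equals the highest concentration tested. Otherwise, values were interpolated linearly from a five-concentration, 48-hour dose response in 96-well plates. GI50 marks 50% less growth.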 Activity calls are given as the source filed them. Rule as the data show it: active = GI50 up to about 1.1 µM and inactive = higher.

Tests used:
Assay in all cases: growth of human tumour cells (NCI), 48 h
U-251 = test system: U-251
MCF7 = test system: MCF7
786-0 = test system: 786-0
SF-295 = test system: SF-295
OVCAR-3 = test system: OVCAR-3
DU-145 = test system: DU-145
NCI-H23 = test system: NCI-H23
HCT-15 = test system: HCT-15
SK-MEL-5 = test system: SK-MEL-5
NCI-H460 = test system: NCI-H460
RXF 393 = test system: RXF 393
NCI-H226 = test system: NCI-H226
IGROV-1 = test system: IGROV-1
MDA-N = test system: MDA-N
MDA-MB-231 = test system: MDA-MB-231
CCRF-CEM = test system: CCRF-CEM
UACC-62 = test system: UACC-62
COLO 205 = test system: COLO 205
SK-OV-3 = test system: SK-OV-3

`CC(=O)Oc1ccc2cc(Oc3cc(Cl)c(Cl)cc3Cl)c(=O)oc2c1` was tested, and the GI50 (U-251) was 15.6 µM (inactive), the GI50 (MCF7) was 24.2 µM (inactive) and the GI50 (786-0) was 15.6 µM (inactive). For the same compound, the GI50 (SF-295) was 22.4 µM (inactive), the GI50 (OVCAR-3) was 16 µM (inactive) and the GI50 (DU-145) was 25.3 µM (inactive). For the same compound, the GI50 (NCI-H23) was 22.2 µM (inactive), the GI50 (HCT-15) was 13.1 µM and the GI50 (SK-MEL-5) was 11.9 µM (inactive). For the same compound, the GI50 (NCI-H460) was 18.8 µM (inactive), the GI50 (RXF 393) was 14.6 µM (inactive) and the GI50 (NCI-H226) was 16.9 µM (inactive). For the same compound, the GI50 (IGROV-1) was 11.2 µM (inactive), the GI50 (MDA-N) was 14.6 µM (inactive) and the GI50 (MDA-MB-231) was 16.4 µM (inactive). The GI50 (CCRF-CEM) was 14 µM (inactive).
With `NCCCN1CCN(c2ccccc2)CC1` the GI50 (U-251) was > 100 µM (inactive), the GI50 (MCF7) was > 100 µM (inactive) and the GI50 (786-0) was > 100 µM (inactive). For the same compound, the GI50 (SF-295) was 10.2 µM (inactive), the GI50 (UACC-62) was 70 µM (inactive) and the GI50 (COLO 205) was 78.7 µM (inactive). For the same compound, the GI50 (OVCAR-3) was 10.7 µM (inactive), the GI50 (DU-145) was > 100 µM (inactive) and the GI50 (HCT-15) was greater than 100 µM. For the same compound, the GI50 (SK-MEL-5) was > 100 µM (inactive), the GI50 (NCI-H460) was > 100 µM (inactive) and the GI50 (RXF 393) was > 100 µM (inactive). For the same compound, the GI50 (NCI-H226) was > 100 µM (inactive), the GI50 (IGROV-1) was > 100 µM (inactive) and the GI50 (MDA-N) was > 100 µM (inactive). For the same compound, the GI50 (MDA-MB-231) was > 100 µM (inactive).
With `c1ccc2c(-c3csc(-c4c[nH]c5ccccc45)n3)c[nH]c2c1` the GI50 (U-251) was > 90.6 µM (inactive), the GI50 (MCF7) was > 52.1 µM (inactive) and the GI50 (786-0) was > 65 µM (inactive). The GI50 (SF-295) was 15.4 µM (inactive), the GI50 (UACC-62) was > 100 µM (inactive) and the GI50 (OVCAR-3) was > 100 µM (inactive). The GI50 (DU-145) was > 76.7 µM (inactive), the GI50 (NCI-H23) was > 100 µM (inactive) and the GI50 (HCT-15) was greater than 100 µM. For the same compound, the GI50 (NCI-H460) was > 53.7 µM (inactive), the GI50 (RXF 393) was > 100 µM (inactive) and the GI50 (NCI-H226) was > 100 µM (inactive). The GI50 (SK-OV-3) was > 44.8 µM (inactive), the GI50 (IGROV-1) was > 28.5 µM (inactive) and the GI50 (MDA-N) was 49 µM (inactive). The GI50 (MDA-MB-231) was > 67.8 µM (inactive).
`Clc1ccccc1NN(Cc1ccccn1)c1ccccc1Cl` was tested, and the GI50 (U-251) was 15.8 µM (inactive), the GI50 (MCF7) was 36.1 µM (inactive) and the GI50 (786-0) was 16.9 µM (inactive). The GI50 (SF-295) was 30.1 µM (inactive), the GI50 (UACC-62) was 16.7 µM (inactive) and the GI50 (COLO 205) was 15.6 µM (inactive). The GI50 (OVCAR-3) was 18.1 µM (inactive), the GI50 (DU-145) was 35.5 µM (inactive) and the GI50 (NCI-H23) was 20 µM (inactive). The GI50 (HCT-15) was 24.9 µM, the GI50 (SK-MEL-5) was 14.5 µM (inactive) and the GI50 (RXF 393) was 14.9 µM (inactive). For the same compound, the GI50 (NCI-H226) was 16.2 µM (inactive), the GI50 (SK-OV-3) was 49.8 µM (inactive) and the GI50 (IGROV-1) was 20.2 µM (inactive). For the same compound, the GI50 (MDA-N) was 17.2 µM (inactive) and the GI50 (MDA-MB-231) was 23.4 µM (inactive).
For `CN(C)CCNC(=O)c1cccc(C(=O)Nc2ccccc2)c1[N+](=O)[O-]`, the GI50 (U-251) was > 100 µM (inactive), the GI50 (MCF7) was > 100 µM (inactive) and the GI50 (786-0) was > 100 µM (inactive). The GI50 (SF-295) was > 100 µM (inactive), the GI50 (UACC-62) was > 100 µM (inactive) and the GI50 (COLO 205) was 54.2 µM (inactive). The GI50 (OVCAR-3) was > 100 µM (inactive), the GI50 (DU-145) was > 100 µM (inactive) and the GI50 (NCI-H23) was > 100 µM (inactive). The GI50 (HCT-15) was greater than 100 µM, the GI50 (SK-MEL-5) was > 100 µM (inactive) and the GI50 (NCI-H460) was > 100 µM (inactive). For the same compound, the GI50 (NCI-H226) was > 100 µM (inactive), the GI50 (SK-OV-3) was > 100 µM (inactive) and the GI50 (IGROV-1) was > 100 µM (inactive). For the same compound, the GI50 (MDA-N) was > 100 µM (inactive), the GI50 (MDA-MB-231) was > 100 µM (inactive) and the GI50 (CCRF-CEM) was > 100 µM (inactive).
In the case of `COc1ccc(/C=C2/N/C(=N\N=C/C(O)C(O)C(O)CO)NC2=O)cc1` (centres undefined), the GI50 (U-251) was > 100 µM (inactive) and 84.7 µM (inactive), the GI50 (MCF7) was 15.9 µM (inactive) and the GI50 (786-0) was > 100 µM (inactive) and 62.4 µM (inactive). For the same compound, the GI50 (SF-295) was > 100 µM (inactive), the GI50 (COLO 205) was 91.4 µM (inactive) and the GI50 (DU-145) was > 100 µM (inactive) and 71.3 µM (inactive). For the same compound, the GI50 (HCT-15) was greater than 100 µM, the GI50 (NCI-H460) was > 100 µM (inactive) and the GI50 (RXF 393) was > 100 µM (inactive). For the same compound, the GI50 (NCI-H226) was 87.7 µM (inactive), the GI50 (SK-OV-3) was 73.6 µM (inactive) and the GI50 (IGROV-1) was > 100 µM (inactive) and 76.7 µM (inactive). The GI50 (MDA-N) was 72.6 µM (inactive), the GI50 (MDA-MB-231) was 91 µM (inactive) and the GI50 (CCRF-CEM) was 63 µM (inactive) and 53 µM (inactive).
In the case of `CCc1cn(C2CC(CO)C(CO)S2)c(=O)[nH]c1=O` (centres undefined), the GI50 (U-251) was > 100 µM (inactive), the GI50 (MCF7) was > 100 µM (inactive) and the GI50 (786-0) was > 100 µM (inactive). For the same compound, the GI50 (SF-295) was > 100 µM (inactive), the GI50 (UACC-62) was > 100 µM (inactive) and the GI50 (COLO 205) was > 100 µM (inactive). The GI50 (OVCAR-3) was > 100 µM (inactive), the GI50 (DU-145) was > 100 µM (inactive) and the GI50 (NCI-H23) was > 100 µM (inactive). For the same compound, the GI50 (HCT-15) was greater than 100 µM, the GI50 (SK-MEL-5) was > 100 µM (inactive) and the GI50 (RXF 393) was > 100 µM (inactive). The GI50 (NCI-H226) was > 100 µM (inactive), the GI50 (SK-OV-3) was > 100 µM (inactive) and the GI50 (IGROV-1) was > 100 µM (inactive). The GI50 (MDA-N) was > 100 µM (inactive), the GI50 (MDA-MB-231) was > 100 µM (inactive) and the GI50 (CCRF-CEM) was > 100 µM (inactive).
For `COc1cc(/C=C2/C[C@H]3[C@@H]4CC=C5C[C@@H](OC(C)=O)CC[C@]5(C)[C@H]4CC[C@]3(C)NC2=O)cc(OC)c1OC`, the GI50 (U-251) was 19.5 µM (inactive), the GI50 (MCF7) was 25.4 µM (inactive) and the GI50 (786-0) was 17.9 µM (inactive). The GI50 (SF-295) was 26.8 µM (inactive), the GI50 (UACC-62) was 19.8 µM (inactive) and the GI50 (COLO 205) was > 100 µM (inactive). The GI50 (OVCAR-3) was 31.3 µM (inactive), the GI50 (DU-145) was 20.8 µM (inactive) and the GI50 (NCI-H23) was 23.9 µM (inactive). The GI50 (HCT-15) was 32.7 µM, the GI50 (SK-MEL-5) was 22.9 µM (inactive) and the GI50 (NCI-H460) was 32.7 µM (inactive). For the same compound, the GI50 (RXF 393) was 17.3 µM (inactive), the GI50 (SK-OV-3) was 25.3 µM (inactive) and the GI50 (IGROV-1) was 30 µM (inactive). The GI50 (MDA-N) was 42.7 µM (inactive), the GI50 (MDA-MB-231) was 22 µM (inactive) and the GI50 (CCRF-CEM) was 49.4 µM (inactive).
